This note sets out measurements from ChEMBL document CHEMBL1150417, “Discovery of novel small-molecule inhibitors of human epidermal growth factor receptor-2: combined ligand and target-based approach” (J Med Chem, 2008).

In test [1] the target is Receptor tyrosine-protein kinase erbB-2 (Homo sapiens, UniProt P04626). Description: Inhibition of HER2.
In test [2] the test system is SK-BR-3. Description: Cytotoxicity against human SKBr3 cells after 72 hrs by MTT assay. The note with it: SK-BR-3, 72 h. The format is functional, cell-based.
For test [3], the system named is SK-BR-3. Description: Cytotoxicity against human SKBR3 cells at 10 uM after 72 hrs by MTT assay. It is filed as functional.

Chain of Receptor tyrosine-protein kinase erbB-2 (P04626 whole entry): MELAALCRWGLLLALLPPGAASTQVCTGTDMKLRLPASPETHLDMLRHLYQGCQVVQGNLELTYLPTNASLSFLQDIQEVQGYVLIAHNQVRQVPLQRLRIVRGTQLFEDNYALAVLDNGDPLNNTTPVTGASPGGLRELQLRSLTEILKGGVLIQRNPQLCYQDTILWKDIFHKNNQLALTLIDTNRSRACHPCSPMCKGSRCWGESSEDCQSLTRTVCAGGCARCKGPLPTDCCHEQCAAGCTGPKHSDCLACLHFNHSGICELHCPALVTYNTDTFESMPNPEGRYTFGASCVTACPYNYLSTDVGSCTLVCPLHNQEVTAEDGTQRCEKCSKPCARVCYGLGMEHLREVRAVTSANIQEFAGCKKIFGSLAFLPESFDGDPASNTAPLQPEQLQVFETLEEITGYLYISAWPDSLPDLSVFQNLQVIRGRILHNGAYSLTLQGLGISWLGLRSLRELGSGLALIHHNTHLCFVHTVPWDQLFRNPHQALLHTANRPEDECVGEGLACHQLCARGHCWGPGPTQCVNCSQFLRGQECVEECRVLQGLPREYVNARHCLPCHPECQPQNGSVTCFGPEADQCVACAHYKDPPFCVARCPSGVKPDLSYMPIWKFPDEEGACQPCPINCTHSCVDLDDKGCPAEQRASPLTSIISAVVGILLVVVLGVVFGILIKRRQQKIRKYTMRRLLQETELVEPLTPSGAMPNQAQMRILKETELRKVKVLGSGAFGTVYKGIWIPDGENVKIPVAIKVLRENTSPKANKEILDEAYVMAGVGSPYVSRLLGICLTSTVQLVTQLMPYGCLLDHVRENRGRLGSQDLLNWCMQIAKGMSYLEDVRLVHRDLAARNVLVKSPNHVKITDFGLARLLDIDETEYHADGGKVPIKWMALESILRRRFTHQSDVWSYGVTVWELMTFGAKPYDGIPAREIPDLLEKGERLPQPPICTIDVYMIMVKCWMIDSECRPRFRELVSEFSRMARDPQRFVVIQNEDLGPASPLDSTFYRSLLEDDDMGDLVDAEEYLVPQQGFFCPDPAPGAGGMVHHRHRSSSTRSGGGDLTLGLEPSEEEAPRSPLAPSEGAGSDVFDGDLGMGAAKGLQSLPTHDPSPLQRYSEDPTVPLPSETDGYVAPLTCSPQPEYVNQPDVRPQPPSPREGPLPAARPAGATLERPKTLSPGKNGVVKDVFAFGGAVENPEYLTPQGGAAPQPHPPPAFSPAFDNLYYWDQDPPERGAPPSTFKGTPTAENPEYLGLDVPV

Consider `CCCCn1c(S(=O)(=O)c2cc(OC)c(OC)c(OC)c2)nc2c(N)ncnc21`, for which the IC50 in test [1] was 310 µM.

As to `Nc1ncnc2nc(Sc3cc(Cl)ccc3Cl)[nH]c12`, in test [1], the half-inhibitory concentration (IC50) came out at 120 µM.

Regarding `CCc1cc2c(NCCc3ccc(OC)c(OC)c3)ncnc2s1`, the IC50 in the test with SK-BR-3 [2] worked out at 14 µM. That is a double-digit micromolar value.

As to `Brc1ccc2ncnc(NCCc3ccccc3)c2c1`, the midpoint of inhibition with SK-BR-3 [2], the IC50, lay at 15 µM.

The molecule `CS(=O)(=O)CCNCc1nc(-c2ccc3ncnc(Nc4ccc(OCc5cccc(F)c5)c(Cl)c4)c3c2)cs1` yielded an IC50 in test [1] of 0.01 µM.

Turning to `COc1ccc(CN(CC(=O)NC2CCCC2)C(=O)Cn2cnc3sc(C)c(C)c3c2=O)cc1`, in the test with SK-BR-3 [3], the Activity turned out to be 21%.

`CCc1ccccc1NC(=O)NCCCNc1nc2cc(C)cc(C)c2cc1C#N` displayed an Activity in the test with SK-BR-3 [3] of 29%.

The molecule `CCOC(=O)c1ccc(Nc2c([N+](=O)[O-])c(=O)oc3ccccc23)cc1` yielded an Activity in the test on SK-BR-3 [3] of 5%.

`CCOc1ccc(OCC)c(NC(=O)CSc2nc3c(C)cccc3cc2C#N)c1` returned an Activity in the test with SK-BR-3 [3] of 16%.

For `COc1ccc(NC(=O)Cn2nnc(-c3ccccc3NC(=O)c3cccs3)n2)cc1`, in the test with SK-BR-3 [3], the Activity amounted to 27%.

In turn, `COc1ccc(-c2nc3cc(NC(=O)COc4ccc(C)cc4C)ccc3o2)cc1Br` gave an Activity in the test on SK-BR-3 [3] of 32%.

`Cc1ccc2[nH]cc(CCNC(=O)c3cccnc3)c2c1` registered an Activity in the test with SK-BR-3 [3] of 1%.

For the molecule `CCOC(=O)c1ccc(Nc2cc(C)nc3ncnn23)cc1`, the Activity with SK-BR-3 [3] is on record as 1%.

With `Cc1cc2cc(CN(Cc3cccs3)C(=O)Nc3ccccc3F)c(=O)[nH]c2cc1C`, the Activity in the test with SK-BR-3 [3] worked out at 19%.

In the case of `CCOC(=O)c1c(-c2ccccc2)csc1NC(=O)CSc1ncnc2sc3c(c12)CCCC3`, the Activity in the test on SK-BR-3 [3] is 11%.

The molecule `O=C(Nc1ccc(Oc2ccc3nsnc3c2)c(Cl)c1)c1cc(Cl)ccc1O` gave an Activity in the test with SK-BR-3 [3] of 30%.

Regarding `Cc1ccc2[nH]c(=O)c(CN(Cc3cccs3)C(=O)c3ccco3)cc2c1`, the Activity in the test on SK-BR-3 [3] came to 22%.

As for `CCC(C)(C)C1CCc2sc3ncnc(N/N=C(\C)c4ccc(OC)cc4)c3c2C1` (stereo unspecified), the Activity in the test on SK-BR-3 [3] is 12%.

In the case of `Cc1cc(Nc2ccc(N3CCC(C)CC3)cc2)n2ncnc2n1`, the Activity in the test with SK-BR-3 [3] amounted to 25%.

The molecule `O=C(CSc1ncnc2sc3c(c12)CCCC3)NCc1cccc2c1OCO2` returned an Activity in the test with SK-BR-3 [3] of 16%.

As to `O=C(CSc1ncnc2sc3c(c12)CCCC3)Nc1ccc(S(=O)(=O)N2CCCCCC2)cc1`, in the test with SK-BR-3 [3], the Activity worked out at 11%.

As for `CCOc1ccc(Nc2nc(NCCO)nc(C)c2[N+](=O)[O-])cc1`, the Activity in the test with SK-BR-3 [3] is listed as 32%.

`c1ccc(OCCOc2ccc(Nc3ccnc4cc5ccccc5cc34)cc2)cc1` registered an IC50 in the test with SK-BR-3 [2] of 2 µM. In other words, the single-digit micromolar range.

`CN1CCN(c2ccc(Nc3ncnc4sc5c(c34)CCCC5)cc2)CC1` came in with a half-maximal inhibitory concentration (IC50) in the test on SK-BR-3 [2] of 9 µM. Against the preceding molecule, the IC50 is about 4.5-fold higher.

As to `Cc1nc2cc(NCc3ccccc3O)ccc2n1Cc1ccccc1`, the Activity in the test with SK-BR-3 [3] came out at 13%.

In the case of `c1cncc(CNc2ncnc3ccccc23)c1`, the Activity with SK-BR-3 [3] worked out at 15%.

For `COc1cccc(-c2cc3cc4c(c(NCc5cc(OC)c(OC)c(OC)c5)n3n2)CCC4)c1`, the Activity in the test on SK-BR-3 [3] turned out to be 4%.

Regarding `O=C(Nc1cccc(NC(=O)c2ccc(Cl)cc2Cl)c1)c1cccnc1`, the Activity in the test with SK-BR-3 [3] is 2%.

As to `c1ccc(CCNc2ccnc3cc4ccccc4cc23)cc1`, 8 µM corresponded to half-maximal inhibition with SK-BR-3 [2] (IC50).

As for `COc1ccc(CCNc2c(Cc3ccccc3)c(C)nc3ncnn23)cc1OC`, the Activity in the test with SK-BR-3 [3] was found to be 21%.

In the test with SK-BR-3 [3], `COc1cccc(OC)c1C(=O)Nc1ccc2c(c1)OCC(=O)N2Cc1ccccc1Cl` gave an Activity of 2%.

Regarding `COc1cc(NC(=O)CSc2nnnn2-c2ccc3c(c2)OCCO3)cc(OC)c1`, the Activity in the test on SK-BR-3 [3] was found to be 15%.

In turn, `O=[N+]([O-])c1ccccc1-c1nnc(CSc2ncnc3sc4c(c23)CCCC4)o1` yielded an Activity in the test with SK-BR-3 [3] of 7%.

On to `CCN(CC)c1ccc(NC(=O)CSc2ncnc3sc(C)c(C)c23)cc1C`, for which the IC50 in the test with SK-BR-3 [2] amounted to 16 µM.

In the test with SK-BR-3 [2], `Fc1ccccc1CCNc1c2c(nc3ncnn13)CCCC2` came in with a half-maximal inhibitory concentration (IC50) of 14 µM.

As for `CCN(CC)CCNc1ccc(Nc2ccnc3cc4ccccc4cc23)cc1`, in the test on SK-BR-3 [2], the IC50 was 2 µM.

With `O=C(CSc1ncnc2sc3c(c12)CCC3)Nc1ccc(S(=O)(=O)N2CCOCC2)cc1`, the Activity in the test on SK-BR-3 [3] was found to be 12%.

As to `c1ccc2c(NCCCNc3ncnc4ccccc34)ncnc2c1`, in the test with SK-BR-3 [3], the Activity is 32%.

The molecule `COc1cc2nccc(Nc3ccc(N4C(=O)c5ccc(Cl)cc5C4=O)c(C)c3)c2cc1OC` displayed an IC50 in test [1] of 1.7 µM.

For `COc1ccc2nc(C)cc(Nc3ccc(Oc4ccc(Cl)cc4)c(Cl)c3)c2c1`, in the test with SK-BR-3 [2], the concentration for half-maximal inhibition (IC50) came out at 5 µM.

As for `COc1ccc2[nH]c(=O)c(CN(CCc3cccc(C)c3)C(C)=O)cc2c1`, the Activity in the test with SK-BR-3 [3] came to 5%.

Take `Cc1sc(NC(=O)CSc2ncnc3sc4c(c23)CCCC4)c(C#N)c1C`: the Activity in the test with SK-BR-3 [3] amounted to 26%.

As for `COc1cc(/C=N/Nc2ncnc3sc4c(c23)CCCC4)ccc1OCC(=O)Nc1ccccc1`, the Activity with SK-BR-3 [3] was determined as 32%.

Take `COc1ccc2nc(C)cc(Nc3ccc(Oc4ccc5ccccc5c4)c(Cl)c3)c2c1`: half-maximal inhibition in the test with SK-BR-3 [2] (IC50) required 5 µM.

`O=C(Nc1ncnc2sc3c(c12)CCC3)c1cccs1` gave an Activity in the test on SK-BR-3 [3] of 20%.

`O=C(NC1CCCC1)C(c1cccs1)N(C(=O)Cc1cccs1)c1ccc2c(c1)OCCO2` (stereo unspecified) had an Activity with SK-BR-3 [3] of 16%.

`Cc1cc(O)nc(SCC(=O)Nc2ccc(C(=O)NC3CCCCC3)cc2)n1`: the Activity with SK-BR-3 [3] was 21%.

For the molecule `COc1ccc(CCNc2cc(-c3ccccc3)nc3ncnn23)cc1`, the half-inhibitory concentration (IC50) in the test on SK-BR-3 [2] stood at 9 µM.

In turn, `CONC(=O)c1ccc(F)c(Nc2ncnn3cc(NC(=O)OCCCS(C)(=O)=O)c(C(C)C)c23)c1` yielded an IC50 in test [1] of 5.3 µM.

In the test with SK-BR-3 [3], `Cc1nn(-c2ccccc2)c2sc(C(=O)N(CC(=O)NC3CCCC3)C3CC3)cc12` displayed an Activity of 22%.

Regarding `O=C(CSc1ncnc2sc3c(c12)CCCC3)Nc1nc(-c2ccc(F)cc2)cs1`, the Activity with SK-BR-3 [3] is 32%.

`CCOc1ccc(Nc2c3c(nc4ncnn24)CCC3)cc1` had an Activity in the test on SK-BR-3 [3] of 26%.

In the test with SK-BR-3 [3], `CC1CCc2c(sc3ncnc(NCc4ccco4)c23)C1` (stereo unspecified) had an Activity of 2%.

In the test on SK-BR-3 [3], `COc1cc(CNCc2cccnc2)ccc1OCc1ccccc1Cl` showed an Activity of 1%.

The molecule `COC(=O)c1sc(NC(=O)CSc2nc(C3CC3)nc3sc4c(c23)CCCC4)nc1C` showed an Activity with SK-BR-3 [3] of 31%.

In the test on SK-BR-3 [3], `Clc1cc(Nc2c3ccccc3nc3ccccc23)ccc1Oc1ccc2ccccc2c1Br` gave an Activity of 3%.

On to `c1ccc(Oc2ccc(Nc3ccnc4ccccc34)cc2)cc1`, for which the midpoint of inhibition in test [1], the IC50, lay at 0.733 µM.

For `CCn1nnnc1SCC(=O)Nc1ccc(OCc2ccccc2)cc1`, in the test with SK-BR-3 [3], the Activity was found to be 19%.

Turning to `O=C(CSc1ncnc2sc3c(c12)CCCC3)Nc1nc(-c2ccccc2)cs1`, in the test with SK-BR-3 [3], the Activity is 34%.

For the molecule `COc1cc(OCC(=O)Nc2cccc([N+](=O)[O-])c2)ccc1/C=N/Nc1ncnc2sc3c(c12)CCCC3`, the Activity in the test on SK-BR-3 [3] turned out to be 7%.

In the test on SK-BR-3 [3], `Cc1ccc(-c2csc3ncnc(SCC(=O)Nc4nc(-c5ccccc5)cs4)c23)cc1` had an Activity of 33%.

With `CN1CCN(CCCNc2ccnc3cc4ccccc4cc23)CC1`, in the test on SK-BR-3 [2], the IC50 worked out at 15 µM.

For the molecule `Cc1ccc(S(=O)(=O)N(Cc2ccc3c(c2)OCO3)Cc2cc3ccc(C)c(C)c3[nH]c2=O)cc1`, the Activity in the test with SK-BR-3 [3] is recorded as 12%.

The molecule `Cc1cc2nc(CBr)c(-c3ccccc3)nc2cc1C` showed an IC50 in test [1] of 21 µM.

With `COCOCC#CC(=O)Nc1ccc2ncnc(Nc3cccc(Br)c3)c2c1`, the 50% inhibitory concentration (IC50) in test [1] worked out at 0.009 µM.

`COCC(=O)NC/C=C/c1ccc2ncnc(Nc3ccc(Oc4ccc(C)nc4)c(C)c3)c2c1` [CP-724714] registered an IC50 in test [1] of 0.012 µM.
